Laboratory results taken from publication PMC8787749, “4-Deoxy-4-fluoro-GalNAz (4FGalNAz) Is a Metabolic Chemical Reporter of O-GlcNAc Modifications, Highlighting the Notable Substrate Flexibility of O-GlcNAc Transferase” (ACS Chemical Biology, 2021).

Columns and labels:
Assay in all cases: UDP-Glo UDP release assay
Type in all cases: biochemical
GALNT1 = biological target: T1, GALNT1 (Homo sapiens, UniProt Q10472); conditions: 50 μM UDP sugar, 50 μM MUC5AC peptide, 10 nM enzyme, 25 mM Tris-HCl pH 7.4, 10 mM MnCl2, room temperature
T1 construct: truncated, residues 41-559, plasmid hT1-pKN55, secreted from Pichia pastoris SMD1163, Ni-NTA purified
T1 sequence (Q10472 41-559): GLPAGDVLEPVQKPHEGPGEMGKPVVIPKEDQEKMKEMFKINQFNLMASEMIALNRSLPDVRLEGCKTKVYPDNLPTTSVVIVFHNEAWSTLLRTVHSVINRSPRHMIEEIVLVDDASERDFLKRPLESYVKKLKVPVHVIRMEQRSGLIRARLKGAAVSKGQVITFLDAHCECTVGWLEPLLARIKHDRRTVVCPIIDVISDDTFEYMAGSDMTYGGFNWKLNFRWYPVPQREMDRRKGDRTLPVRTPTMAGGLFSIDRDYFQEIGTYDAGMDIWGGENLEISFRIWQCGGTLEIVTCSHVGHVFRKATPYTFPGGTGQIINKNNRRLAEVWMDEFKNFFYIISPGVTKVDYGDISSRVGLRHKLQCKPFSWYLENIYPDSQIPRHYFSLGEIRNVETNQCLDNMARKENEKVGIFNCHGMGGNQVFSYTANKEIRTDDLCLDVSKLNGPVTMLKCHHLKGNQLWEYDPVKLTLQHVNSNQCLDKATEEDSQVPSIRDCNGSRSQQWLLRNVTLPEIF

GALNT2 = biological target: T2, GALNT2 (Homo sapiens, UniProt Q10471); conditions: 50 μM UDP sugar, 50 μM MUC5AC peptide, 150 nM enzyme, 25 mM Tris-HCl pH 7.4, 10 mM MnCl2, room temperature
T2 construct: truncated, residues 75-572 as printed, hT2-pKN55 vector, secreted from Pichia pastoris SMD1163, Ni-NTA purified
T2 sequence (Q10471 75-571): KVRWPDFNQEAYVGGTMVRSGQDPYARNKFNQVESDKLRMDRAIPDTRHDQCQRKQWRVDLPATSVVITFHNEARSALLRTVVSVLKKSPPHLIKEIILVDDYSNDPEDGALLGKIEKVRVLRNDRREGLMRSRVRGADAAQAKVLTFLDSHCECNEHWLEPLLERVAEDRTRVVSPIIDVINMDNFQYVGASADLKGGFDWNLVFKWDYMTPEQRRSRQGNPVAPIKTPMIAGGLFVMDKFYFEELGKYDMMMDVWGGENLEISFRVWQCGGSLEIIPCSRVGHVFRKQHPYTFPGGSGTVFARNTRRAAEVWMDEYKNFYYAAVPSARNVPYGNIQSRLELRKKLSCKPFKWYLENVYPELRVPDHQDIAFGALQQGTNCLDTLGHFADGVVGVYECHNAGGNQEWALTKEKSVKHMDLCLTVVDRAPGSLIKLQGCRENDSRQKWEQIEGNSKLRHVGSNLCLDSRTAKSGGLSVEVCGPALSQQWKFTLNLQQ

ncOGT (OGT) = biological target: T3, ncOGT (OGT) (Homo sapiens, UniProt O15294); conditions: 40 μM UDP sugar, 125 μM CKII3K peptide, 300 nM enzyme, 25 mM Tris-HCl pH 7.4, 150 mM NaCl, room temperature
T3 sequence (O15294 2-1046): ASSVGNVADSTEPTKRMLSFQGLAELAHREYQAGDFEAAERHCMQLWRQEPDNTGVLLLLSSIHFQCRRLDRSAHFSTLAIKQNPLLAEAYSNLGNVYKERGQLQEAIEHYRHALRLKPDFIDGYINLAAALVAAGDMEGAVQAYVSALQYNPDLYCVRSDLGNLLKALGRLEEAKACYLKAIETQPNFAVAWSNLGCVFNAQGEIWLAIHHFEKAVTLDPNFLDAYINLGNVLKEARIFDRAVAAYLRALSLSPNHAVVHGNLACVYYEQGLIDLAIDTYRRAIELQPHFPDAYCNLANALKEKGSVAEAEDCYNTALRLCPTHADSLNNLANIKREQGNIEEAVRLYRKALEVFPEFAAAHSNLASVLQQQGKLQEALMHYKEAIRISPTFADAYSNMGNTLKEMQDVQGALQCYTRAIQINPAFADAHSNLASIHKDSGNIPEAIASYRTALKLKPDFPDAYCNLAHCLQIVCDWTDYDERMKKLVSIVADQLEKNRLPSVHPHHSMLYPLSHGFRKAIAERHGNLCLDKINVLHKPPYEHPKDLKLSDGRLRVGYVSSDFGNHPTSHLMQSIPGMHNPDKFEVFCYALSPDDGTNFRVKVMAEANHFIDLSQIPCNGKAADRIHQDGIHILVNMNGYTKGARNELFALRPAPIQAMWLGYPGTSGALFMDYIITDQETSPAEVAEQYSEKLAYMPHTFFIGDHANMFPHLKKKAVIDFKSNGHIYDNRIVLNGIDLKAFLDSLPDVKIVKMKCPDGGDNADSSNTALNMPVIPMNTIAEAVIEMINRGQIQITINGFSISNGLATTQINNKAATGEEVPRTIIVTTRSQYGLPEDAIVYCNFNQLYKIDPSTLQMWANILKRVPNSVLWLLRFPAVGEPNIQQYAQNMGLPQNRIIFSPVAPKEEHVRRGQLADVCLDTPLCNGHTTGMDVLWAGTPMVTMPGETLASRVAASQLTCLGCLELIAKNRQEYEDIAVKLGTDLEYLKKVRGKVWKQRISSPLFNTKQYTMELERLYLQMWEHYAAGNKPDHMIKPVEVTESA

Compound	UDP-Glo UDP release assay (GALNT1)	UDP-Glo UDP release assay (GALNT2)	UDP-Glo UDP release assay (ncOGT (OGT))
CC(=O)N[C@H]1[C@@H](OP(=O)(O)OP(=O)(O)OC[C@H]2O[C@@H](n3ccc(=O)[nH]c3=O)[C@H](O)[C@@H]2O)O[C@H](CO)[C@H](O)[C@@H]1O [UDP-GalNAc]	despite clear turnover of the native UDP-GalNAc substrate	despite clear turnover of the native UDP-GalNAc substrate	–
CC(=O)N[C@H]1[C@@H](OP(=O)(O)OP(=O)(O)OC[C@H]2O[C@@H](n3ccc(=O)[nH]c3=O)[C@H](O)[C@@H]2O)O[C@H](CO)[C@@H](O)[C@@H]1O [UDP-GlcNAc]	–	–	OGT accepted UDP-GalNAc but less efficiently than UDP-GlcNAc
